Legend:
[1] = target: T1, human SGLT1 (Homo sapiens, UniProt P13866); assay: Cell-based assay for sodium-dependent glucose transport (14C-AMG uptake), CHOK-SGLT1; conditions: CHO-K1 cells stably expressing human SGLT1; for inhibition at 10 µM: 10 μM compound, read-out: CHOK-SGLT1 % Inh. @ 10 μM; for IC50: Na-dependent 14C-AMG uptake
T1 construct: expressed in transfected cells
T1 sequence (P13866 1-664): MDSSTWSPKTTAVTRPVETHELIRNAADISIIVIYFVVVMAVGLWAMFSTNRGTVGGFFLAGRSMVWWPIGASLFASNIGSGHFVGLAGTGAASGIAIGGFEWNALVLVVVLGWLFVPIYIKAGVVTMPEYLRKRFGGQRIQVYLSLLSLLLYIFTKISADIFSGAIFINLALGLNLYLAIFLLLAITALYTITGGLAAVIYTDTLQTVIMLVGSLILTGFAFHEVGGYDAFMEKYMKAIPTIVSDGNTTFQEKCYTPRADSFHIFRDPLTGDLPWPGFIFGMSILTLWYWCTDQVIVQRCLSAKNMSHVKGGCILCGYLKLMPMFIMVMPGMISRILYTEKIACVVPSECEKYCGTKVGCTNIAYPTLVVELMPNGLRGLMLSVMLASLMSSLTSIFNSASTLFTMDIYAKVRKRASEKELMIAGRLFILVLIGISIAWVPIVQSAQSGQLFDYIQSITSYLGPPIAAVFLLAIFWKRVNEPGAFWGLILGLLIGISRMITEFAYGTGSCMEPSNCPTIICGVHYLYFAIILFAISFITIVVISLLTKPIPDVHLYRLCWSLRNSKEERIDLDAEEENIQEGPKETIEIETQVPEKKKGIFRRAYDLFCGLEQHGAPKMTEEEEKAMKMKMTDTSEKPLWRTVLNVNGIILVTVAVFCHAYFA
Method: (§1) Cloning of the human SGLT1 and human SGLT2 cDNAs and construction of the mammalian expression vector: The human SGLT1 cDNA (Genbank M24847) was cloned from human small intestine. Human SGLT2 cDNA (Genbank M95549) was cloned from human kidney. Both full cDNAs were subcloned into pcDNA and sequenced to verify the integrity of the construct.
(§2) Generation of CHO-K1 cells stably expressing human SGLT1 or human SGLT2: Transfection of CHO-K1 cells was performed using DMRIE-C reagent (Life Technologies, Gaithersburg, Md.). Transfectants were then selected in the presence of the antibiotic G418 (Gibco-BRL, Grand Island, N.Y.) at 400 μg/ml. Individual clones were then characterized using the functional assay described below.
(§3) Cell-based assay for sodium-dependent glucose transport: Cell lines stably expressing human SGLT1 or SGLT2 were then used for functional analysis of Na+-dependent glucose uptake. Briefly, cells were plated at a density of 65,000 cells per well in a 96-well plate and allowed to grow for 48 hours. Cells were subsequently washed one time with Assay Buffer (50 mM HEPES pH […], 5 mM KCl, 1 mM MgCl2, 1 mM CaCl2 and 137 mM NaCl) and treated with compound in the absence or presence of NaCl for 15 minutes. Cells were then labeled with ^14C-α-methylglucopyranoside (AMG, Sigma, St. Louis, Mo.), a non-metabolizable glucose analog specific for sodium-dependent glucose transporters as previously described (Peng, H. and Lever J. E. Post-transcriptional regulation of Na^+/glucose cotransporter (SGLT1) gene expression in LLC-PK1 cells. J Biol Chem 1995; 270:20536-20542.). After 2 hours the labeled cells were washed three times with ice-cold PBS. After aspiration, cells were solubilized using Microscint 20 (Packard, Meriden, Conn.) and Na-dependent ^14C-AMG uptake was quantified by measuring radioactivity. Plates were counted in a TopCount (Packard, Meriden, Conn.). Results are reported as the % inhibition or IC50 value from a representative experiment. Variability for the functional assay was typically within 20%.

[2] = target: T2, human SGLT2 (Homo sapiens, UniProt P31639); assay: Cell-based assay for sodium-dependent glucose transport (14C-AMG uptake), CHOK-SGLT2; conditions: CHO-K1 cells stably expressing human SGLT2; for IC50: Na-dependent 14C-AMG uptake; for inhibition at 10 µM: 10 μM compound, read-out: CHOK-SGLT2 % Inh. @ 10 μM
T2 construct: expressed in transfected cells
T2 sequence (P31639 1-672): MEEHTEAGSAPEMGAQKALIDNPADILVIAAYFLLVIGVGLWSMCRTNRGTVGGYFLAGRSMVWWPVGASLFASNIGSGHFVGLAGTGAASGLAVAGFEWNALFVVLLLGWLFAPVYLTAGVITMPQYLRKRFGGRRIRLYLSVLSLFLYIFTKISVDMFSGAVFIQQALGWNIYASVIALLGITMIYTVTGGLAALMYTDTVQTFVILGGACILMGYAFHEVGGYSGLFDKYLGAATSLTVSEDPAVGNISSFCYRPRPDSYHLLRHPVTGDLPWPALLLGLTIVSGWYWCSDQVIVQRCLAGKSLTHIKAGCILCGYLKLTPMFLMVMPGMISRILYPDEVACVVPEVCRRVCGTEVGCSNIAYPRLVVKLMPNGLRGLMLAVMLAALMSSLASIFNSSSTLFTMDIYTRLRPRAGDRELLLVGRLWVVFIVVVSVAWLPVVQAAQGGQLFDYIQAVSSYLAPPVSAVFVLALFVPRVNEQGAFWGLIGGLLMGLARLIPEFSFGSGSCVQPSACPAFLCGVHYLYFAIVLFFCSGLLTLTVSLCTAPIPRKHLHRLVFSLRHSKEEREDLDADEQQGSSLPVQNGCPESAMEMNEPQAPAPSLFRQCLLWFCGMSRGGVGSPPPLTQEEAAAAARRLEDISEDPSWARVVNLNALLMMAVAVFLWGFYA
Method: as §1, §2, §3

Structure (SMILES): OC[C@H]1O[C@@H](Oc2cccc3[nH]cc(Cc4ccc(-c5ccccc5)c(F)c4)c23)[C@H](O)[C@@H](O)[C@@H]1O [Example 20, 2-[3-(2-Fluoro-biphenyl-4-ylmethyl)-1H-indol-4-yloxy]-β-D-glucopyranoside]
- inhibition at 10 µM [1]: 35%
- IC50 [2]: 114 nM

Structure (SMILES): CCN(CC)C(=O)n1cc(Cc2ccc(OC)cc2)c2c(O[C@@H]3O[C@H](CO)[C@@H](O)[C@H](O)[C@H]3O)cccc21 [Example 21, 2-[1-Diethylcarbamoyl-3-(4-methoxy-benzyl)-1H-indol-4-yloxy]-β-D-glucopyranoside]
- inhibition at 10 µM [1]: 43%
- IC50 [2]: 1430 nM

Structure (SMILES): COc1ccc(Cc2c[nH]c3cccc(O[C@@H]4O[C@H](CO)[C@@H](O)[C@H](O)[C@H]4O)c23)cc1 [Example 22, 2-[3-(4-Methoxy-benzyl)-1H-indol-4-yloxy]-β-D-glucopyranoside]
- IC50 [1]: 1120 nM
- IC50 [2]: 118 nM

Structure (SMILES): COc1ccc(Cc2cn(C)c3cccc(O[C@@H]4O[C@H](CO)[C@@H](O)[C@H](O)[C@H]4O)c23)cc1 [Example 23, 2-[3-(4-Methoxy-benzyl)-1-methyl-1H-indol-4-yloxy]-β-D-glucopyranoside]
- inhibition at 10 µM [1]: 69%
- IC50 [2]: 1220 nM

Structure (SMILES): COc1ccc(Cc2c[nH]c3cccc(O[C@@H]4O[C@H](CO)[C@@H](O)[C@H](O)[C@H]4O)c23)cc1F [Example 24, 2-[3-(3-Fluoro-4-methoxy-benzyl)-1H-indol-4-yloxy]-D-glucopyranoside]
- inhibition at 10 µM [1]: 79%
- IC50 [2]: 202 nM

Structure (SMILES): CCOc1ccc(Cc2c[nH]c3cccc(O[C@@H]4O[C@H](CO)[C@@H](O)[C@H](O)[C@H]4O)c23)cc1 [Example 25, 2-[3-(4-Ethoxy-benzyl)-1H-indol-4-yloxy]-β-D-glucopyranoside]
- inhibition at 10 µM [1]: 49%
- IC50 [2]: 100 nM

Structure (SMILES): CSc1ccc(Cc2c[nH]c3cccc(O[C@@H]4O[C@H](CO)[C@@H](O)[C@H](O)[C@H]4O)c23)cc1 [Example 27, 2-[3-(4-Methylsulfanyl-benzyl)-1H-indol-4-yloxy]-β-D-glucopyranoside]
- IC50 [1]: 1310 nM
- IC50 [2]: 26 nM

Structure (SMILES): OC[C@H]1O[C@@H](Oc2cccc3[nH]cc(Cc4ccc(Cl)cc4)c23)[C@H](O)[C@@H](O)[C@@H]1O [Example 28, 2-[3-(4-Chloro-benzyl)-1H-indol-4-yloxy]-β-D-glucopyranoside]
- inhibition at 10 µM [1]: 58%
- IC50 [2]: 346 nM

Structure (SMILES): OC[C@H]1O[C@@H](Oc2cccc3[nH]cc(Cc4ccc5ccccc5c4)c23)[C@H](O)[C@@H](O)[C@@H]1O [Example 29, 2-(3-Naphthalen-2-ylmethyl-1H-indol-4-yloxy)-β-D-glucopyranoside]
- inhibition at 10 µM [1]: 68%
- IC50 [2]: 260 nM

Structure (SMILES): OC[C@H]1O[C@@H](Oc2cccc3[nH]cc(Cc4ccc5c(c4)CCO5)c23)[C@H](O)[C@@H](O)[C@@H]1O [Example 30, 2-[3-(2,3-Dihydro-benzofuran-5-ylmethyl)-1H-indol-4-yloxy]-β-D-glucopyranoside]
- inhibition at 10 µM [1]: 30%
- IC50 [2]: 1870 nM

Structure (SMILES): CCc1ccc(Cc2c[nH]c3cc(C)cc(O[C@@H]4O[C@H](CO)[C@@H](O)[C@H](O)[C@H]4O)c23)cc1 [Example 32, 2-[3-(4-Ethyl-benzyl)-6-methyl-1H-indol-4-yloxy]-β-D-glucopyranoside]
- inhibition at 10 µM [1]: 30%
- IC50 [2]: 117 nM

Structure (SMILES): Cc1ccsc1Cc1c[nH]c2cccc(O[C@@H]3O[C@H](CO)[C@@H](O)[C@H](O)[C@H]3O)c12 [Example 34]
- inhibition at 10 µM [1]: 27%
- IC50 [2]: 5040 nM

Structure (SMILES): OC[C@H]1O[C@@H](Oc2cccc3[nH]cc(Cc4ccc(-c5cccnc5)cc4)c23)[C@H](O)[C@@H](O)[C@@H]1O [Example 35, 2-[3-(4-Pyridin-3-yl-benzyl)-1H-indol-4-yloxy]-β-D-glucopyranoside]
- IC50 [1]: 1120 nM
- IC50 [2]: 133 nM

Structure (SMILES): CCc1ccc(Cc2c(C)[nH]c3cccc(O[C@@H]4O[C@H](CO)[C@@H](O)[C@H](O)[C@H]4O)c23)cc1 [Example 36, 2-[3-(4-Ethyl-benzyl)-2-methyl-1H-indol-4-yloxy]-β-D-glucopyranoside]
- inhibition at 10 µM [1]: 16%
- inhibition at 10 µM [2]: 52%

Structure (SMILES): OC[C@H]1O[C@@H](Oc2cccc3[nH]cc(Cc4ccc(-c5ccsc5)cc4)c23)[C@H](O)[C@@H](O)[C@@H]1O [Example 37, 2-[3-(4-Thiophen-3-yl-benzyl)-1H-indol-4-yloxy]-β-D-glucopyranoside]
- IC50 [1]: 1890 nM
- IC50 [2]: 34 nM

Structure (SMILES): CCc1ccc(C(=O)c2c[nH]c3cccc(O[C@@H]4O[C@H](CO)[C@@H](O)[C@H](O)[C@H]4O)c23)cc1 [Example 38, 2-[3-(4-Ethylbenzoyl)-1H-indol-4-yloxy]-β-D-glucopyranoside]
- inhibition at 10 µM [1]: 7%
- inhibition at 10 µM [2]: 22%

From patent US7820630B2, “Substituted indole-O-glucosides” (Janssen Pharmaceutica NV, priority 2003, dated 2010)
